Where two headings read alike, the source gives them in different places.
Experiments:
[1] = tested on: hemorrhagic transformation model induced by clopidogrel combined with cerebral ischemia-reperfusion; experiment: Hemorrhagic transformation after cerebral ischemia-reperfusion (MCAO) caused by clopidogrel, bleeding rate; assay type: in vivo, ICR mice; settings: for Number of animals with cerebral hemorrhage: 24 h after MCAO; for Bleeding rate %: model group 80.0
Protocol: (§1) 5-week-old ICR male mice were fed to 6-week-old and divided into a control group, a model group, an icaritin-3 mg/kg group, an icaritin-6 mg/kg group, an icaritin-12 mg/kg group, and an icariin-12 mg/kg group according to body weight. From day 1 to day 3 after the grouping, the mice in each icaritin group were separately intragastrically administrated with 3, 6, and 12 mg/kg of icaritin and the mice in the icariin group was intragastrically administrated with 12 mg/kg of icariin once a day, and the mice in other groups were intragastrically administrated with a corresponding vehicle; and except the control group, the mice in other groups were intragastrically administrated with aspirin (100 mg/kg) or clopidogrel (15 mg/kg) once a day at a volume of 10 mL/kg.
(§2) On day 3, 10 min after the administration, the mice were anesthetized by intraperitoneal injection of 70 mg/kg of pentobarbital sodium and subjected to a cerebral ischemia-reperfusion (middle cerebral artery occlusion, MCAO) surgery with ischemia for 1 h and reperfusion for 23 h.
(§3) 24 h after the surgery was an end point of the experiment.
(§4) Bleeding rate: the mice were anesthetized by intraperitoneal injection of 70 mg/kg of pentobarbital sodium, a brain tissue was taken out, cerebral hemorrhage was recorded and a bleeding rate of the mice in each group was calculated. Cerebral hemorrhage rate %=number of animals with cerebral hemorrhage/number of surviving animals in each group×100.

[2] = tested on: IX-knockout mice with hemophilia; experiment: Tail-cut bleeding time of coagulation factor IX-knockout mice with hemophilia; assay type: in vivo
Protocol: One hour after the last administration, the tails of the mice were cut and bleeding time of each mouse was measured.

[3] = tested on: prolonged bleeding time caused by aspirin; experiment: Tail-cut bleeding time in mice, prolonged by aspirin; assay type: in vivo, ICR mice; settings: aspirin 20 mg/kg i.g.
Protocol: According to the body weight on the last day of the quarantine, the male and female animals were divided into six groups by a simplified random method, namely, a normal group (C), a model group (V), icaritin low-, medium- and high-dose groups (2, 6, and 18 mg/kg, L, M, H) and a positive control drug group (200 mg/kg of etamsylate, P).
After 15 min of the modeling, the tails of the mice were cut and bleeding time of each mouse was measured.

[4] = mouse, in vivo
Protocol: After the grouping, the mice in the normal group and the model group were intragastrically administrated with 10 ml/kg of an icaritin solvent which was prepared by adding 12 g of hypromellose E5 and 0.1 g of sodium lauryl sulfate into 1 L of water. […] One hour after the last pre-administration, the mice in the model group and each administration group were injected with 150 U/kg of a heparin sodium injection through a tail vein to establish a model, and the mice in the normal group were injected with 10 ml/kg of a sodium chloride injection through a tail vein.
After the bleeding time was detected, the mice were anesthetized with sodium pentobarbital, blood was collected from an abdominal cardinal vein, and indicators of blood routine examination and four coagulation indicators (prothrombin time, thromboplastin time, thrombin time, and fibrinogen) were detected.

[5] = tested on: activated partial thromboplastin time; experiment: Activated partial thromboplastin time, rabbit model of acquired hemophilia A; assay type: in vivo, New Zealand rabbits
Protocol: Twenty-four healthy New Zealand rabbits were selected and randomly divided into a control group, a model group and a treatment group with 8 rabbits in each group. Each rabbit weighed about 1.5 kg. The rabbits were fed in separate stainless steel cages at a room temperature of 18-25° C. The rabbits in each group were given a normal diet without any special treatment. One week later, the rabbit was anesthetized with 2% pentobarbital (1.5 ml/kg) via the marginal ear vein, and the left femoral vein of the rabbit was isolated and exposed for injection. The plasma of patients with acquired hemophilia A (confirmed by the Department of Hematology, Linyi People's Hospital) was intravenously injected into the rabbits in the model group and the treatment group at 2 ml/kg of rabbit body weight. The rabbits in the treatment group were immediately intragastrically administrated with icaritin at 18 mg/kg after the injection was completed and the rabbits in the model group were intragastrically administrated with a same amount of normal saline. The rabbits in the control group were intravenously injected with a same amount of normal human plasma. Blood was drawn from the marginal ear vein 30 min before and 30 min, 60 min, 90 min, and 120 min after the injection of the plasma separately, 3.8% of sodium citrate (1:9) was added for anticoagulation, and the anticoagulated blood was centrifuged at 3,000 r/m to separate plasma.
Referring to the instructions of the kit, 0.1 mL of rabbit plasma was taken, 0.1 mL of a thromboplastin time reagent was added, the materials were mixed, an obtained mixture was subjected to warm bath at 37° C. for 2 min, 0.1 mL of 0.025 M calcium chloride pre-warmed at 37° C. was added, the materials were uniformly mixed, a value of thromboplastin time at each time point was measured by immediately starting a stopwatch, the thromboplastin time at each time point was repeatedly detected twice, and an average value was obtained.

[6] = tested on: hemorrhagic transformation model induced by aspirin combined with cerebral ischemia-reperfusion; experiment: Hemorrhagic transformation after cerebral ischemia-reperfusion (MCAO) caused by aspirin, bleeding rate; assay type: in vivo, ICR mice; settings: for Number of animals with cerebral hemorrhage: 24 h after MCAO; for Bleeding rate %: model group 85.7
Protocol: as §1, §2, §3, §4

Q: Which results are given for `COc1ccc(-c2oc3c(CC=C(C)C)c(O)cc(O)c3c(=O)c2O)cc1` [Icaritin]?
A: Number of animals with cerebral hemorrhage ([1]; 3 mg/kg i.g. Day 1-3 with clopidogrel 15 mg/kg, of 7 animals): 3; Bleeding rate % ([1]; 3 mg/kg i.g. Day 1-3 with clopidogrel 15 mg/kg): 42.9%; Number of animals with cerebral hemorrhage ([1]; 6 mg/kg i.g. Day 1-3 with clopidogrel 15 mg/kg, of 8 animals): 2; Bleeding rate % ([1]; 6 mg/kg i.g. Day 1-3 with clopidogrel 15 mg/kg): 25.0%; Number of animals with cerebral hemorrhage ([1]; 12 mg/kg i.g. Day 1-3 with clopidogrel 15 mg/kg, of 8 (icaritin) or 7 (icariin) animals): 2; Bleeding rate % ([1]; 12 mg/kg i.g. Day 1-3 with clopidogrel 15 mg/kg): 25.0%; Bleeding time ([2]; group B, 3 mg/kg i.g. once a day 11 days, 1 h after last administration, control 37.8 ± 12.4): 25.5 ± 8.9 min; Bleeding time ([2]; group C, 6 mg/kg i.g. once a day 11 days): 20.4 ± 6.9 min; Bleeding time ([2]; group D, 18 mg/kg i.g. once a day 11 days): 16.5 ± 9.7 min; Bleeding time ([3]; group H, 18 mg/kg i.g. once a day 5 days): 16.7 ± 7.2^$ $ & min; Bleeding time ([3]; group L, 2 mg/kg i.g. once a day 5 days, tail cut 15 min after modeling): 28.4 ± 9.8^$ min; Bleeding time ([3]; group M, 6 mg/kg i.g. once a day 5 days): 24.7 ± 7.3^$ min; Fibrinogen ([4]; 2 mg/kg): 1.83 ± 0.22 g/L; Prothrombin time ([4]; 2 mg/kg): 10.12 ± 1.34 s; Thrombin time ([4]; 2 mg/kg): 22.23 ± 2.01 s; Thromboplastin time ([4]; 2 mg/kg): 25.19 ± 1.90 s; Fibrinogen ([4]; 6 mg/kg): 1.82 ± 0.56 g/L; Prothrombin time ([4]; 6 mg/kg): 11.23 ± 1.45 s; Thrombin time ([4]; 6 mg/kg): 24.09 ± 1.99 s; Thromboplastin time ([4]; 6 mg/kg): 25.09 ± 2.22 s; Fibrinogen ([4]; 18 mg/kg): 2.01 ± 0.52 g/L; Prothrombin time ([4]; 18 mg/kg): 9.98 ± 1.23 s; Thrombin time ([4]; 18 mg/kg): 25.54 ± 1.78 s; Thromboplastin time ([4]; 18 mg/kg): 24.55 ± 2.66 s; Thromboplastin time ([5]; icaritin 18 mg/kg i.g. after plasma injection, 30 min after injection): 40.4 ± 3.23^$; Thromboplastin time ([5]; icaritin 18 mg/kg i.g., 60 min after injection): 39.9 ± 4.09$ $; Thromboplastin time ([5]; icaritin 18 mg/kg i.g., 90 min after injection): 40.4 ± 5.67$ $; Thromboplastin time ([5]; icaritin 18 mg/kg i.g., 120 min after injection): 41.3 ± 6.21^$ $; Thromboplastin time ([5]; treatment group, 30 min before injection of patient plasma (before icaritin)): 36.8 ± 4.12; Number of animals with cerebral hemorrhage ([6]; 3 mg/kg i.g. Day 1-3 with aspirin 100 mg/kg, of 8 animals): 3; Bleeding rate % ([6]; 3 mg/kg i.g. Day 1-3 with aspirin 100 mg/kg): 37.5%; Number of animals with cerebral hemorrhage ([6]; 6 mg/kg i.g. Day 1-3 with aspirin 100 mg/kg, of 8 animals): 2; Bleeding rate % ([6]; 6 mg/kg i.g. Day 1-3 with aspirin 100 mg/kg): 25.0%; Number of animals with cerebral hemorrhage ([6]; 12 mg/kg i.g. Day 1-3 with aspirin 100 mg/kg, of 9 (icaritin) or 8 (icariin) animals): 2; Bleeding rate % ([6]; 12 mg/kg i.g. Day 1-3 with aspirin 100 mg/kg): 22.2%

Source: patent US12558343B2, “Medical use of icaritin” (Lunan Pharmaceutical Group Corporation, priority 2020, dated 2026)
